Data taken from ChEMBL document CHEMBL3988442, “University of Dundee, Small-Polar-MMV Screening Library” (2021).

Columns and labels:
[1] = microbe, parasite or virus in culture; conditions: Mycobacterium tuberculosis, 96 h, read-out: pIC50 (converted)
[2] = microbe, parasite or virus in culture; conditions: Mycobacterium tuberculosis, 72 h, read-out: pIC50 (converted)

SMILES | IC50 [1] [µM] | IC50 [2] [µM]
CC(CNC(=O)N[C@@H](C)C(=O)N(C)C)Cc1cccs1 (stereo partly specified) | 277 | 247
CCc1nc(CNC)cs1 | 236 | 305
NCc1n[nH]c(-c2ccc(Br)cc2)n1 | > 50.1 | 24.3
CC(C)C(=O)NCCCNC(=O)c1ccc(F)cc1O | > 501 | 125
CC(Nc1ccc(OC(F)F)cn1)c1ccncc1 (stereo unspecified) | 246 | 195
CCn1cncc1CNc1ccc(-c2nc(CC(C)C)no2)cn1 | 5.92 | > 50.1
Cn1cncc1CN1CCCC1c1cncc(Oc2ccc(F)cc2)n1 (stereo unspecified) | > 50.1 | 19.4
FC(F)(F)Sc1ccc(NCc2nnc(C3CC3)o2)cc1 | 14.3 | 36.4
CC(C)COc1cncc(NC(C)CO)n1 (stereo unspecified) | > 501 | > 501
CC(C)CNc1nc(N)c2cn[nH]c2n1 | 234 | 80
Cc1ccc2nc(-c3cnc(N)nc3)c(C)c(C(=O)N(C)C)c2c1 | > 50.1 | > 50.1
CCSc1nc2ccccc2c(=O)n1CCCO | 278 | 181
NC(=O)NC(=O)CCS(=O)(=O)c1cc(F)ccc1F | 139 | 70.1
COc1ccnc(N2CCCNCC2)n1 | > 501 | 229
CCOc1ccnc(N[C@@H](Cc2ccccc2)C(N)=O)n1 | > 50.1 | > 50.1
CCn1nnc(NCc2ccccc2OCc2ccc(Cl)cc2)n1 | 0.308 | > 50.1
CC(=O)Nc1ccc(C(=O)N(C)Cc2cccs2)cc1 | 272 | 307
Cn1nnnc1NCc1cccc(Cl)c1Cl | > 501 | > 501
COCCC1CN(C(=O)c2ccc(C)c(F)c2)CCO1 (stereo unspecified) | 234 | 257
O=C(NCCOc1ncccc1Cl)c1cc(Cl)c[nH]1 | 287 | 188
Cc1nc(-c2cccc(N3CCC(N4CCCC4)CC3)c2)cs1 | 24.2 | > 50.1
NCc1noc(-c2ccc(Cl)cc2F)n1 | 242 | 277
C=C(C)CCOC(=O)c1ccc(CS(C)(=O)=O)cc1 | 258 | 275
NC(=O)CCS(=O)(=O)CCN1CCCCCC1 | > 501 | 158
N#CCCSc1nnc(Cc2ccccc2F)o1 | > 50.1 | > 50.1
Cc1ccc(N2N=C(C(N)=O)S(=O)(=O)c3cccnc32)cc1 | 36 | 14.5
CCC1Oc2c(Cl)cccc2NC1=O (stereo unspecified) | > 501 | > 501

SMILES | IC50 [1] [µM] | IC50 [2] [µM]
O=C(CC1C=CCC1)N1CCN(Cc2ccco2)CC1 (stereo unspecified) | 228 | 184
Cc1nc(CN2CCC(CNC(=O)NCCC3CCC3)CC2)oc1C | 0.791 | 1.06
Oc1cccc(CNc2cccnc2-n2cccn2)c1 | 74.1 | 222
CCCc1nc2c(c(C)c(C)n2Cc2ccncc2)c(N)c1CC | > 50.1 | > 50.1
CN(CC1CCOCC1)C(=O)NCc1ccco1 | 125 | 95.8
COc1cccc(CN(C)C(=O)CSc2ccc3c(c2)OCCO3)c1 | 25 | > 50.1
Cn1nc(CN2CCCN(C3CCCC3)CC2)c2c(Cl)cccc21 | 39.8 | 44.8
COC(=O)COc1ccc2c(c1)OCO2 | > 501 | 140
COc1ccc(-c2ccccc2CCN)c(OC)c1 | 41.6 | 48.2
CC(C)c1ccccc1OCC(O)CN(C)CCO (stereo unspecified) | 257 | 123
c1ccc(Cc2cccc(C3CCCN3C3CCOCC3)n2)cc1 (stereo unspecified) | > 50.1 | 13.2
CC(=O)N1CCC(C(=O)c2ccc(C)cc2)CC1 | > 501 | 100
Cc1cc2nc(CN)[nH]c2cc1C | > 501 | 148
NC1CCN(c2ccc(C(F)(F)F)cn2)CC1 | 139 | 91.6
CN1CCN(c2ccnc(SCC(N)=O)n2)CC1 | > 501 | 289
CC(C)N(C)S(=O)(=O)NCCc1cccs1 | 206 | 182
CC(C)(C)c1n[nH]cc1CNCC1CCN(C2CC2)C1 (stereo unspecified) | 27.6 | 28.5
O=C1CN(CC(=O)N2CCCCCCC2)CCN1 | > 501 | > 501
Cc1cc(CN2CCN(C(=O)CCc3cccs3)CC2)on1 | 10.5 | 4.03
COc1cccc(S(=O)(=O)CCN2CCCC2CO)c1 (stereo unspecified) | 141 | 462
Cc1c(C(=O)NCC(N)=O)oc2ccc(Cl)cc12 | 218 | 102
Cc1ccc(C2(O)CCNC2)cc1 (stereo unspecified) | > 501 | 181
CC(C)c1csc(C(=O)N2CCOc3ncccc32)n1 | 231 | 139
CCc1nc(C2CCCN(C(=O)c3ccccc3Cl)C2)no1 (stereo unspecified) | > 50.1 | 23.9
O=C(CNC1CC1)NCCc1ccc(F)cc1 | 63.6 | 31.5
CC(=O)c1sc(NCCc2ccccn2)nc1C | > 501 | > 501
